This note sets out measurements from paper PMC10604323, “Cannabidiol Modulates M-Type K^+ and Hyperpolarization-Activated Cation Currents” (Biomedicines, 2023).

Assay [1] concerns T1, hyperpolarization-activated cation current (Ih) of GH3 cells; HCN2, HCN3, and a combination of HCN2 and HCN3.
T1 construct: native channels in GH3 cells; subunit composition not determined
In words: whole-cell patch clamp. The conditions noted are these: Ca2+-free Tyrode's solution with 0.5 mM CdCl2 and 1 μM TTX, 2 s step from -40 to -110 mV, pH 7.4, 20-25 °C, native current. It is filed as cell-based.

Assay [2] deals with T2, M-type K+ current (IK(M)) of GH3 cells; KV7.2, KV7.3 and KV7.5 channels.
T2 construct: gene Kcnq2; native channels in GH3 cells; subunit composition not determined
In words: whole-cell patch clamp. It is filed as cell-based. The following applies: high-K+ Ca2+-free solution with 1 μM TTX, 1 s step from -50 to -10 mV, pH 7.4, 20-25 °C, native current. The source says:
whole-cell patch clamp on M-type K+ current (IK(M)) of GH3 cells; KV7.2, KV7.3 and KV7.5 channels | concentration–response curve for the CBD-induced inhibition of the density of IK(M)

Take `C=C(C)[C@@H]1CCC(C)=C[C@H]1c1c(O)cc(CCCCC)cc1O` [Cannabidiol, 2-[(1R,6R)-3-methyl-6-(prop-1-en-2-yl)cyclohex-2-en-1-yl]-5-pentylbenzene-1,3-diol]: the IC50 in assay [1] is 3.3 µM; in assay [2], 3.6 µM.
